Consider three compounds from patent US11389415B2, “Methods of regulating cannabinoid receptor activity-related disorders and diseases” (The United States of America as represented by the …, priority 2012, dated 2022).

One test has as its system HepG2 cells. Briefly: [3H]-Thymidine incorporation assay in HepG2 cells. The test is classed as cell-based, human. On the procedure:
Maintenance and Treatment of Cell Lines. Human HepG2 hepatocarcinoma cells and human U87MG glioma cells (ATCC, Manassas, Va.) were maintained in EMEM medium supplemented with 1% L-glutamine, 1% sodium pyruvate, 1% penicillin/streptomycin, and 10% FBS (Hyclone, Logan, Utah). The human 1321N1 astrocytoma cells (European Collection of Cell Cultures, Sigma-Aldrich) were cultured in Dulbecco's modified Eagle's medium supplemented with 10% FBS and penicillin/streptomycin. All cell lines were cultured at 37° C. in 5% CO2, and the medium was replaced every 2-3 days.
Cells were seeded in 12-well plates at approximately 50,000 cells/well and incubated at 37° C. After 24 hours, the wells were rinsed with PBS and replaced with serum-free medium containing the appropriate concentration of the test compounds. After another 24-hour incubation at 37° C., 1 μCi of [^3H]-thymidine was added to each well and incubated at 37° C. for 16 hours. [^3H]-Thymidine incorporation into DNA was monitored after the cells were washed twice with PBS and then lysed in 600 μL of 0.1N NaOH for 30 minutes with shaking. The lysate was then mixed with 3 mL of liquid scintillation cocktail (Beckman Coulter, Inc., Brea, Calif.), and radioactivity was measured by liquid scintillation counting using Beckman Coulter LS6000IC Scintillation Counter. Data are shown as CPM incorporated compared to the control cells.
A general note: Dividing cells build labelled thymidine or BrdU into new DNA.

A further test relates to 1321N1 cells. The note with it: previously reported; read-out: Mitogenesis Inhibition in 1321N1 cells (IC50 nM)* (converted); cited from earlier work.
A further test deals with HepG2 and PANC-1 cells. Briefly: Cell morphology and EGFR expression in HepG2 and PANC-1 cells. Format: cell-based, human. The conditions noted are these: 5 μM, 16 hours. On the procedure: FIGS. 26A-26C show MNF interferes with inducible changes in cell morphology and expression of EGFR. […] White arrows show individual cells with filopodia. FIG. 26C, Cell lysates were prepared from similar studies and immunoblotted for EGFR. The membranes were reprobed for Hsp90, which served as a loading control.
(§1) Western blot analysis. For detection of intracellular signaling proteins, cells were lysed in radioimmunoprecipitation buffer containing EGTA and EDTA (Boston BioProducts, Ashland, Mass.). The lysis buffer contained a protease inhibitor cocktail (Sigma-Aldrich) and phosphatase inhibitor cocktail (Calbiochem, San Diego, Calif.). Equivalent amount of proteins (14 and 54 μg/well for PANC-1 and HepG2 cells, respectively) were separated on 4 to 12% precast gels (Invitrogen, Carlsbad, Calif.) using SDS-polyacrylamide gel electrophoresis under reducing conditions and then electrophoretically transferred onto polyvinylidene fluoride membrane (Invitrogen). Western blots were performed according to standard methods, which involved blocking in 5% non-fat milk and incubated with the antibody of interest, followed by incubation with a secondary antibody conjugated with the enzyme horseradish perodixase. The detection of immunoreactive bands was performed by chemiluminescence using the ECL Plus Western Blotting Detection System (GE Healthcare, Piscataway, N.J.). The quantification of bands was done by volume densitometry by using ImageJ software. The rabbit polyclonal antibodies against EGFR were obtained from Cell Signaling Technology, Inc. (Beverly, Mass.) and the monoclonal anti-Hsp90 was purchased from Santa Cruz Biotechnology, Inc. (Santa Cruz, Calif.).

Test [1] addresses T1, GPR55 (Homo sapiens, UniProt Q9Y2T6). Description: Cellular uptake of TocriFluor T1117 in HepG2 cells. The test is classed as cell-based. The arrangement: host or cells: HepG2 hepatocarcinoma cells. The note with it: HepG2, 0.25 μM, 30 minutes pretreatment.
Test [2] addresses T1, GPR55. Briefly: GPR55 internalization assay in hGPR55-HEK293 cells. The conditions noted are these: HEK293 stably expressing HA-tagged GPR55, 5 μM, 20 minutes. Format: cell-based. On the procedure:
GPR55 internalization assay. Endocytosis of GPR55 was observed following a previously described protocol with minor modifications (Henstridge et al., Br. J. Pharmacol. 160: 604-614, 2010). Briefly, hGPR55-HEK293 cells were grown on Lab-Tek II CC2 chamber slides (Thermo Scientific Nunc, Rochester, N.Y.) for 48 hours in regular media and then were serum starved for 1 hour. A preincubation with 1:1000 rabbit HA antibody (Covance, Md.) was performed in the presence of vehicle (0.1% DMSO) or 1 μM MNF in serum-free media for 45 minutes at 37° C. in the CO2 incubator. Cells were then washed extensively with PBS and treated with 5 μM 01602 in serum-free media for 20 minutes at 37° C. in the CO2 incubator. Subsequently, cells were washed three times, fixed in fresh 3.7% paraformaldehyde in PBS (10 min), and incubated with anti-rabbit Alexa Fluor 488 antibody (Molecular Probes, Eugene, Oreg.; 1:1000, 30 minutes). Cells were washed and fixed for a second time prior to permeabilization with 0.2% Triton X-100 (5 minutes). Incubation with anti-rabbit Alexa Fluor 568 antibody (Molecular Probes; 1:1000, 30 minutes) was carried out to determine the extent of internalized GPR55-HA antibody complex. […]

The next test has as its system ERK1/2. Description: ERK1/2 phosphorylation (GPR55 downstream signaling) in HepG2 cells. The test is classed as cell-based, human. The note with it: HepG2, 2.5 and 10 μM, 10 minutes. On the procedure:
as §1
Effect of MNF on O-1602-mediated increase in cell signaling. Serum-starved cells were pretreated in the absence or presence of 1 μM MNF for 10 minutes followed by a 10 minute incubation with 0, 2.5 and 10 μM O-1602 or 10% FBS, after which the levels of total ERK2 and phosphorylated forms of ERK1/2 (pErk1/2, Thr202/Tyr204), were determined by Western blotting technique. All primary antibodies were purchased from Cell Signaling Technology and used at a dilution recommended by the manufacturer.

Each structure is given as a SMILES string.

T1 sequence (Q9Y2T6 whole entry): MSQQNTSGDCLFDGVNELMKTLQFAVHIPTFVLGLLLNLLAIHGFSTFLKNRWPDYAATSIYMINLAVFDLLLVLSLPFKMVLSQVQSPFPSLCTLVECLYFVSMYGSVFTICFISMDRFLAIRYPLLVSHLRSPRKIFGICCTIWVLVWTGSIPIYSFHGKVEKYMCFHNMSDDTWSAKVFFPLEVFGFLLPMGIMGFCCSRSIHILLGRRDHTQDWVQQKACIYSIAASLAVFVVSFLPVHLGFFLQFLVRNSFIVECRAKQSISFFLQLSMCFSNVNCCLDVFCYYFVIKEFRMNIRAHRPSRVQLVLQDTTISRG

The IC50 is the concentration at which inhibition is half-maximal. For `C[C@@H](Cc1ccc(O)cc1)NC[C@@H](O)c1cc(O)cc(O)c1` [(S,S′)-Fen, fenoterol], in the test with HepG2 cells (1 μM, 24 h), the “% Change in HepG2 cells ([3H]-thymidine incorporation)” value worked out at 9.7%. The IC50 in the test on 1321N1 cells is 184 nM.
For the compound `C=C(C)[C@@H]1CCC(C)=C[C@H]1c1c(C)cc(O)cc1O` [O-1602, reference compound], the “EGFR levels” value in the test on HepG2 and PANC-1 cells was “led to higher EGFR levels when compared to vehicle-treated cells”. In addition, the “reduction in the amount of T1117 incorporated” value on GPR55 [1] came out at 47%. The “delay in cellular accumulation of T1117” value at GPR55 [1] (10 nM T1117) turned out to be 12.5 min. Also, the “GPR55 internalization” value at GPR55 [2] was “led to marked endocytosis of HA-tagged GPR55”. Besides, in the test on ERK1/2, the “ERK phosphorylation” value is “dose-dependently increased ERK phosphorylation”.
Consider `CCC(Cc1ccc(O)cc1)NCC(O)c1cc(O)cc(O)c1` [(R,R′)-ethylFen, (R,R′)-ethylfenoterol], for which the “% Change in HepG2 cells ([3H]-thymidine incorporation)” value in the test on HepG2 cells (at 10 μM) is “(R,R′): 50.90 at 10 μM %”. In addition, the IC50 in the test on 1321N1 cells was 1.44 ± 0.27 nM.
